# In US9012481B2, “Benzoarylureido compounds, and composition for prevention or treatment of neurodegenerative brain disease containing the same” (Korea Institute of Science and Technology, priority 2009, dated 2015):
# Like-named read-outs stand apart in the source and are kept apart here.
# Legend:
# BV-2 cells = experiment: Cell viability (MTT analysis) of beta-amyloid treated BV-2 cells; assay type: cell-based; conditions: Mus musculus, BV-2 cells, average of three experiments; for viability at 50 µM: compound 50 μM for 24 hours after 50 μM beta-amyloid for 2 hours; for viability at 0.1 µM: compound 100 nM for 24 hours after 50 μM beta-amyloid for 2 hours; for viability at 1 µM: compound 1000 nM for 24 hours after 50 μM beta-amyloid for 2 hours
# Experimental: Beta-amyloid (Aβ25-35, Sigma Chemical Co., St. Louis, Mo., USA) was diluted with aseptic desalted water and preservative solution (1 mM, GIBCO), and kept in aliquots at −70° C. To the treatment of beta-amyloid, beta-amyloid preservative solution was diluted to desired concentrations in a treatment medium (DMEM, GIBCO). The reagents were newly provided as a preservative solution (10 mM) under DMSO (dimethylsulfoxide), and diluted in treatment medium to desired concentrations.
# BV-2 microglia cells (allotted from Pharmacology Division of Ajou University) were cultivated in DMEM (Dulbecco's Modified Eagle's Medium) supplemented with 5% fetal bovine serum (Invitrogen, Carlsbad, Calif., USA), sou/Ml penicillin (Invitrogen, Carlsbad, Calif., USA), and 50 μg/Ml streptomycin (Invitrogen, Carlsbad, Calif., USA) under the atmosphere condition with 5% CO2 and 95% air at 37° C. The medium was replaced once a day, the cells were plate-cultured in a density according to the scale of each experiment.
# BV-2 cells were plate-cultured in 96-well plate at the density of 5×10^4, the cell viability was measured according to a conventional MTT analysis method and lactate dehydrogenase (LDH) analysis method. The MTT analysis depends on the metabolism ability of mitochondria of living cell, and reflexes intracellular redox states. The cultured cells were treated with MTT a solution (final concentration: 1 mg/Ml) for 4 hours. Deep blue formazan crystal generated in the original cells was dissolved in a lysis buffer, and then, the absorbance was detected at 595 nm with microplate reader. The LDH activity released from the culture medium was detected, which was evaluated as a cell death index. The culture medium was added to a reagent (test, Sigma Chemical Co, St. Louis, Mo., USA) containing sodium lactate, NADH and sodium pyruvate, and then, the absorbance reduction by NADH at 340 nm was measured. The result was calculated assuming that the LDH activity in homogenate solution of the non-treated control is 100%.
# […] For microscope analysis, BV-2 cells were used in 6-well plate at the density of 5×10^5 cells/well, for MTT analysis, BV-2 cells were used in 96-well plate at the density of 5×10^4 cells/well.
# The obtained prevention effects of KHG25967 compound on toxicity induced by beta-amyloid in BV-2 cells were FIGS. 1A and 1b.
# For MTT analysis, BV-2 cells were used on 96-well plate in the density of 5×10^4 cells/well. The quantitative analysis results (unit: %) for the cell viability obtained by MTT analysis were shown in Table 2, wherein the values are represented by the average of three experiments per each concentration.
# [1] = read-out: cell viability by MTT analysis
# [2] = compound 500 nM for 24 hours after 50 μM beta-amyloid for 2 hours, read-out: cell viability by MTT analysis
# [3] = BV-2, read-out: cell viability by MTT analysis, compound 500 nM for 24 hours after 50 μM beta-amyloid for 2 hours
SMILES,viability at 50 µM (BV-2 cells; [1]),melting point,viability at 0.5 µM (BV-2 cells; [2]),viability at 0.5 µM (BV-2 cells; [3]),viability at 0.1 µM (BV-2 cells),viability at 1 µM (BV-2 cells)
"CCOC(=O)CNC(=O)Nc1nc2ccc(F)cc2s1 [KHG25956, ethyl 2-(3-(6-fluorobenzo[d]thiazole-2-yl)ureido)acetate]",36%,291 °C,–,–,–,–
"COCCNC(=O)Nc1nc2ccccc2s1 [KHG26344, 1-(benzo[d]thiazole-2-yl)-3-(2-methoxyethyl)urea]",–,257 °C,58%,–,–,–
"Cc1cccc2sc(NC(=S)NCC(=O)O)nc12 [KHG26340, 2-(3-(4-methylbenzo[d]thiazole-2-yl)thioureido)acetic acid]",–,214 °C,78%,–,–,–
"CCOC(=O)CNC(=S)Nc1nc2c(Cl)cccc2s1 [KHG26312, ethyl 2-(3-(4-chlorobenzo[d]thiazole-2-yl)thioureido)acetate]",–,198 °C,55%,–,–,–
"Cc1cccc2sc(NC(=O)NCC(=O)[O-])nc12.[K+] [KHG26217, potassium 2-(3-(4-methylbenzo[d]thiazole-2-yl)ureido)acetate]",–,264.4 °C,–,49%,–,–
"CCOC(=O)CNC(=S)Nc1nc2ccc(C)cc2s1 [KHG26305, ethyl 2-(3-(6-methylbenzo[d]thiazole-2-yl)thioureido)acetate]",–,290.8 °C,37%,–,–,–
"CCCCOC(=O)CNC(=O)Nc1nc2ccccc2s1 [KHG25954, butyl 2-(3-benzo[d]thiazole-2-ylureido)acetate]",48%,294 °C,–,–,–,–
O=C(NCc1nn[nH]n1)Nc1nc2ccccc2s1 [KHG26345],–,249 °C,63%,–,–,–
"CCOC(=O)CCCNC(=O)Nc1nc2ccccc2n1C [KHG26031, ethyl 4-(3-(1-methyl-1H-benzo[d]imidazole-2-yl)ureido)butanoate]",56%,81 °C,–,–,–,–
"CCOC(=O)CCNC(=O)Nc1nc2ccccc2s1 [KHG26005, ethyl 3-(3-benzo[d]thiazole-2-ylureido)propanoate]",40%,256 °C,–,–,–,–
"Cn1c(NC(=O)NCC(=O)[O-])nc2ccccc21.[K+] [KHG26172, potassium 2-(3-(1-methyl-1H-benzo[d]imidazole-2-yl)ureido)acetate]",–,229 °C,–,68%,–,–
"Cc1cc2nc(NC(=S)NCC(=O)O)sc2cc1C [KHG26335, 2-(3-(5,6-dimethylbenzo[d]thiazole-2-yl)thioureido)acetic acid]",–,212 °C,81%,–,–,–
"CCOC(=O)CNC(=S)Nc1nc2ccccc2n1C [KHG26303, ethyl 2-(3-(1-methyl-1H-benzo[d]imidazole-2-yl)thioureido)acetate]",–,185 °C,48%,–,–,–
"CCOC(=O)CCNC(=O)Nc1nc2ccccc2[nH]1 [KHG26027, ethyl 3-(3-1H-benzo[d]imidazole-2-ylureido)propanoate]",45%,264 °C,–,–,–,–
"CCOC(=O)CCNC(=O)Nc1nc2ccccc2n1C [KHG26030, ethyl 3-(3-(1-methyl-1H-benzo[d]imidazole-2-yl)ureido)propanoate]",75%,105 °C,–,–,60%,76%
"CCOC(=O)CNC(=S)Nc1nc2ccc(OCC)cc2s1 [KHG26309, ethyl 2-(3-(6-ethoxybenzo[d]thiazole-2-yl)thioureido)acetate]",–,183 °C,65%,–,–,–
"O=C(O)CCNC(=O)Nc1nc2ccccc2s1 [KHG26026, 3-(3-benzo[d]thiazole-2-ylureido)propanic acid]",82%,243 °C,–,–,66%,85%
"CCOC(=O)CNC(=O)Nc1nc2ccccc2n1C [KHG26029, ethyl 2-(3-(1-methyl-1H-benzo[d]imidazole-2-yl)ureido)acetate]",70%,157 °C,–,–,86%,73%
"CCOC(=O)CNC(=S)Nc1nc2c(C)cccc2s1 [KHG26306, ethyl 2-(3-(4-methylbenzo[d]thiazole-2-yl)thioureido)acetate]",–,219 °C,62%,–,–,–
"O=C([O-])CNC(=O)Nc1nc2ccc(Cl)cc2s1.[K+] [KHG26177, potassium 2-(3-(6-chlorobenzo[d]thiazole-2-yl)ureido)acetate]",–,237 °C,–,62%,–,–
"Cc1ccc2nc(NC(=O)NCC(=O)[O-])sc2c1.[K+] [KHG26216, potassium 2-(3-(6-methylbenzo[d]thiazole-2-yl)ureido)acetate]",–,236 °C,–,62%,–,–
"Cc1ccc(CNC(=O)Nc2nc3ccccc3s2)cc1 [KHG25948, 1-(benzo[d]thiazole-2-yl)-3-(4-methylbenzyl)urea]",30%,257 °C,–,–,–,–
"O=C(O)CNC(=S)Nc1nc2ccccc2s1 [KHG26316, 2-(3-benzo[d]thiazole-2-ylthioureido)acetic acid]",–,200 °C,57%,–,–,–
